Results published in EP0326331B1, “Substituted quinolines and cinnolines” (Dow AgroSciences LLC, priority 1988, dated 1989).
Where two headings read alike, the source gives them in different places.

Experiments:
Format in all cases: in vivo
[1] = test system: southern armyworm (Spodopetra eridania Cramer); experiment: Mite/insect screen, SAW; settings: percent mortality; for mortality at 200 ppm / mortality at 400 ppm: Spodoptera eridania, read-out: SAW RESULTS %
Outline: (§1)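 Read-out: percent mortality after standard exposure periods. Test solutions were water dilutions of compound dissolved in acetone/alcohol (50:50) with emulsifier blends; leaves were sprayed to runoff on both surfaces and air-dried for one hour before exposure.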

plant pathogens = experiment: Fungicidal efficacy against a broad spectrum of plant pathogens (summary of screen); settings: summary statement in the description
corn rootworm = experiment: Mite/insect screen, CRW; settings: percent mortality; for mortality at 12 ppm / mortality at 24 ppm: read-out: CRW RESULTS %
Outline: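 Read-out: % mortality after standard exposure. Formulation: acetone/alcohol (50:50) with emulsifiers at 23 g and 13 g per liter, water-diluted to final test levels.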

[2] = test system: Pseudoperonospora cubensis (downy mildew); experiment: Test 1 greenhouse foliar spray screen, downy mildew on squash; settings: for DOWN MDEW: disease control rating, foliar spray on squash, 400 ppm (+++ at 100 ppm); for pest or weed control at 400 ppm: Pseudoperonospora cubensis, foliar, Test 1, foliar spray on squash, disease control rating at 400 ppm / 100 ppm, read-out: DOWN MDEW
[3] = test system: melon aphids (Aphis gossypii Glover); experiment: Mite/insect screen, MA; settings: percent mortality; for mortality at 200 ppm / mortality at 400 ppm: Aphis gossypii, read-out: MA RESULTS %
Outline: as §1

[4] = test system: Puccinia recondita tritici (leaf rust); experiment: Test 1 greenhouse foliar spray screen, leaf rust on wheat; settings: for LEAF RUST: disease control rating, foliar spray on wheat, 400 ppm (+++ at 100 ppm); for pest or weed control at 400 ppm: Puccinia recondita, foliar, Test 1, foliar spray on wheat, disease control rating at 400 ppm / 100 ppm
[5] = test system: Twospotted spider mites (Tetranychus urticae Koch); experiment: Mite/insect screen, SM; settings: for mortality at 200 ppm / mortality at 400 ppm: Tetranychus urticae, read-out: SM RESULTS %; for mortality at 200 ppm / mortality at 400 ppm / SM RESULTS %: percent mortality; for activity as miticides: summary statement in the description
Outline: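 Foliar spray to runoff (10 psi), 1 h drying; aqueous dilutions from acetone/alcohol emulsifier stock. Mortality (%) after standard exposure.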

[6] = test system: Pyricularia oryzae (rice blast); experiment: whole plant or invertebrate; settings: for RICE BLAST: disease control rating, foliar spray on rice, 400 ppm (+++ at 100 ppm); for pest or weed control at 400 ppm: Pyricularia oryzae, foliar, read-out: RICE BLAST, Test 1, foliar spray on rice, disease control rating at 400 ppm / 100 ppm
[7] = test system: Botrytis cinerea (gray mold); experiment: Test 1 greenhouse foliar spray screen, gray mold on grape berries; settings: for GRAY MOLD: disease control rating, spray on grape berries, 400 ppm (+++ at 100 ppm); for pest or weed control at 400 ppm: Botrytis cinerea, foliar, Test 1, spray on grape berries, disease control rating at 400 ppm / 100 ppm
[8] = test system: Erysiphe graminis tritici (powdery mildew); experiment: Test 1 greenhouse foliar spray screen, powdery mildew on wheat; settings: for POWD MDEW: disease control rating, foliar spray on wheat, 400 ppm (+++ at 100 ppm); for pest or weed control at 400 ppm: Blumeria graminis, foliar, Test 1, foliar spray on wheat, disease control rating at 400 ppm / 100 ppm, read-out: POWD MDEW
[9] = test system: Venturia inaequalis (apple scab); experiment: Test 1 greenhouse foliar spray screen, apple scab on apple seedling; settings: for pest or weed control at 400 ppm: Venturia inaequalis, Test 1, foliar spray on apple seedling, disease control rating at 400 ppm / 100 ppm, read-out: APPL SCAB
[10] = test system: Septoria tritici (leaf blotch); experiment: Test 1 greenhouse foliar spray screen, leaf blotch on wheat; settings: for pest or weed control at 400 ppm: Zymoseptoria tritici, Test 1, foliar spray on wheat, disease control rating at 400 ppm / 100 ppm, read-out: LEAF BLOT
[11] = test system: Cercospora beticola (leaf spot); experiment: Test 1 greenhouse foliar spray screen, leaf spot on sugar beet; settings: for pest or weed control at 400 ppm: Cercospora beticola, Test 1, foliar spray on sugar beet, disease control rating at 400 ppm / 100 ppm
[12] = foliar, rate 400 ppm, foliar spray on squash
[13] = foliar, rate 200 ppm, foliar spray on squash

| Compound | activity against a broad spectrum of plant pathogens (plant pathogens) | DOWN MDEW [2] | LEAF RUST [4] | RICE BLAST [6] | GRAY MOLD [7] | POWD MDEW [8] | mortality at 400 ppm [1, 12] [%] | mortality at 24 ppm (corn rootworm; CRW rate 24.00 ppm) [%] | pest or weed control at 400 ppm [2] [%] | mortality at 400 ppm [3, 12] [%] | pest or weed control at 400 ppm [4] [%] | mortality at 400 ppm [5, 12] [%] | pest or weed control at 400 ppm [6] [%] | pest or weed control at 400 ppm [7] [%] | pest or weed control at 400 ppm [8] [%] | mortality at 200 ppm [1, 13] [%] | mortality at 12 ppm (corn rootworm; CRW rate 12.00 ppm) [%] | mortality at 200 ppm [3, 13] [%] | mortality at 200 ppm [5, 13] [%] | also measured |
| --- | --- | --- | --- | --- | --- | --- | --- | --- | --- | --- | --- | --- | --- | --- | --- | --- | --- | --- | --- | --- |
| Fc1cccc2c(NCCc3cccc(Oc4ccccc4)c3)ccnc12 [Example 39, 8-fluoro-N-[2-(3-phenoxyphenyl)ethyl]-4-quinolinamine] | particularly excellent activity | +++ (90-100% control at 100 ppm) | +++ (90-100% control at 100 ppm) | +++ (90-100% control at 100 ppm) | - (0-19% control at 400 ppm) | +++ (90-100% control at 100 ppm) | – | – | – | – | – | – | – | – | – | – | – | – | – | mortality at 200 ppm ([1]; SAW, SM & MA RATE 200 PPM): 0%; mortality at 400 ppm ([1]; SAW, SM & MA RATE 400 PPM): 0%; mortality at 12 ppm (corn rootworm; CRW RATE 12.00 PPM): 0%; mortality at 24 ppm (corn rootworm; CRW RATE 24.00 PPM): 0%; mortality at 200 ppm ([3]; SAW, SM & MA RATE 200 PPM): 0%; mortality at 400 ppm ([3]; SAW, SM & MA RATE 400 PPM): 0%; mortality at 200 ppm ([5]; SAW, SM & MA RATE 200 PPM): 0%; mortality at 400 ppm ([5]; SAW, SM & MA RATE 400 PPM): 0% |
| Fc1cccc2c(NCCc3cccc(-c4ccccc4)c3)ccnc12 [Example 72, N-[2-(1,1'-biphenyl)-3-ylethyl]-8-fluoro-4-quinolinamine] | particularly excellent activity | +++ (90-100% control at 100 ppm) | +++ (90-100% control at 100 ppm) | +++ (90-100% control at 100 ppm) | - (0-19% control at 400 ppm) | ++ (90-100% control at 400 ppm) | – | – | – | – | – | – | – | – | – | – | – | – | – | mortality at 400 ppm ([1]; SAW, SM & MA RATE 400 PPM): 0%; mortality at 24 ppm (corn rootworm; CRW RATE 24.00 PPM): 0%; mortality at 400 ppm ([3]; SAW, SM & MA RATE 400 PPM): 0%; mortality at 400 ppm ([5]; SAW, SM & MA RATE 400 PPM): 0% |
| Fc1cccc2c(OCCc3ccccc3C(F)(F)F)ccnc12 [Example 206, 8-fluoro-4-[2-(2-(trifluoromethyl)phenyl)ethoxy]quinoline] | particularly excellent activity | – | – | – | – | – | 0 | 0 | 90 to 100 | 0 | 90 to 100 | 0 | 90 to 100 | 0 to 19 | 90 to 100 | – | – | – | – | – |
| Cc1cccc(CCOc2ccnc3c(F)cccc23)c1 [Example 224, 8-fluoro-4-[2-(3-methylphenyl)ethoxy]quinoline] | particularly excellent activity | – | – | – | – | – | 0 | 0 | 90 to 100 | 0 | 90 to 100 | 0 | 90 to 100 | 0 to 19 | 90 to 100 | – | – | – | – | – |
| Fc1ccccc1CCOc1ccnc2c(F)cccc12 [Example 225, 8-fluoro-4-[2-(2-fluorophenyl)ethoxy]quinoline] | particularly excellent activity | – | – | – | – | – | 0 | 0 | 90 to 100 | 0 | 90 to 100 | 0 | 90 to 100 | 0 to 19 | 90 to 100 | – | – | – | – | – |
| CC(C)c1ccc(CCOc2ccnc3c(F)cccc23)cc1 [Example 238, 8-fluoro-4-[2-(4-(i-propyl)phenyl)ethoxy]quinoline] | particularly excellent activity | – | – | – | – | – | 100 | 0 | 90 to 100 | 0 | 90 to 100 | 0 | 90 to 100 | 20 to 89 | 90 to 100 | 0 | 0 | 100 | 100 | activity as miticides [5]: particularly excellent activity |
| CC(C)c1ccc(CCCc2ccnc3c(F)cccc23)cc1 [Example 256, 8-fluoro-4-[3-(4-(i-propyl)phenyl)propyl]quinoline] | particularly excellent activity | – | – | – | – | – | 100 | 100 | 90 to 100 | 0 | 90 to 100 | 0 | 90 to 100 | 0 to 19 | 90 to 100 | – | – | – | – | – |
| Fc1cccc2c(CCCc3cccc(C(F)(F)F)c3)ccnc12 [Example 259, 8-fluoro-4-[3-[3-(trifluoromethyl)phenyl]propyl]quinoline] | – | – | – | – | – | – | 0 | 0 | 90 to 100 | 80 | 90 to 100 | 80 | 90 to 100 | 20 to 89 | 20 to 89 | 0 | 0 | 90 | 100 | pest or weed control at 400 ppm [9]: 90 to 100%; activity as miticides [5]: particularly excellent activity; pest or weed control at 400 ppm [10]: 90 to 100%; pest or weed control at 400 ppm [11]: 0 to 19% |
| Fc1cccc2c(CCCc3ccc(Cl)cc3)ccnc12 [Example 261, 4-[3-(4-chlorophenyl)propyl]-8-fluoroquinoline] | – | – | – | – | – | – | 80 | 100 | 20 to 89 | 100 | 90 to 100 | 50 | 20 to 89 | 0 to 19 | 20 to 89 | 100 | 0 | 100 | 90 | pest or weed control at 400 ppm [9]: 20 to 89%; pest or weed control at 400 ppm [10]: 20 to 89%; pest or weed control at 400 ppm [11]: 0 to 19% |
| N-[2-(2,3,4,5,6-tetramethylphenyl)ethyl]-8-fluoro-4-quinolinamine [Example 112] | – | +++ (90-100% control at 100 ppm) | + (20-89% control at 400 ppm) | - (0-19% control at 400 ppm) | - (0-19% control at 400 ppm) | - (0-19% control at 400 ppm) | – | – | – | – | – | – | – | – | – | – | – | – | – | APPL SCAB ([9]; disease control rating, foliar spray on apple seedling, 400 ppm (+++ at 100 ppm)): - (0-19% control at 400 ppm); SAW RESULTS % ([1]; SAW, SM & MA RATE 200 PPM): 0%; SAW RESULTS % ([1]; SAW, SM & MA RATE 400 PPM): 0%; CRW RESULTS % (corn rootworm; CRW RATE 12.00 PPM): 0%; CRW RESULTS % (corn rootworm; CRW RATE 24.00 PPM): 0%; MA RESULTS % ([3]; SAW, SM & MA RATE 200 PPM): 0%; MA RESULTS % ([3]; SAW, SM & MA RATE 400 PPM): 0%; SM RESULTS % ([5]; SAW, SM & MA RATE 200 PPM): 0%; SM RESULTS % ([5]; SAW, SM & MA RATE 400 PPM): 0%; LEAF BLOT ([10]; disease control rating, foliar spray on wheat, 400 ppm (+++ at 100 ppm)): - (0-19% control at 400 ppm); LEAF SPOT ([11]; disease control rating, foliar spray on sugar beet, 400 ppm (+++ at 100 ppm)): - (0-19% control at 400 ppm) |
